Columns and labels:
HDLP = experiment: Histone deacetylase assay with [3H] acetyl-labeled histone substrate; format: biochemical, Aquifex aeolicus; details: in vitro
PLZF-RARα APL cells = details: cited from earlier work
lung tumors = details: mice; cited from earlier work
mammary tumors = details: rats; cited from earlier work

Molecule	inhibition of HDLP histone deacetylase activity (HDLP)	responsiveness to retinoic acid-induced differentiation (PLZF-RARα APL cells)	preventing the formation of lung tumors (lung tumors)	preventing the formation of mammary tumors (mammary tumors)
CC(/C=C/C(=O)NO)=C\[C@@H](C)C(=O)c1ccc(N(C)C)cc1 [TSA, trichostatin A]	inhibited	enhances their responsiveness	–	–
suberoylanilide hydroxamic acid [SAHA]	–	–	effective	effective

— patent US7124068B2, “Crystal structure of a deacetylase and inhibitors thereof” (Sloan-Kettering Institute for Cancer Research, priority 1999, dated 2006)
